Measured values reported in PubChem BioAssay (NCI).
Where “and” joins values, the source holds several entries; their conditions need not be identical. Identical values can stand only once.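 Method: 48-hour compound exposure of cells in 96-well plates, five concentrations, linear interpolation of endpoints. At the GI50, growth is halved. TGI: concentration producing complete growth inhibition.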

What was measured:
Assay in all cases: NCI anticancer screen, dose series, 48 h
EKVX NSCLC = system: EKVX NSCLC
LOX IMVI melanoma = system: LOX IMVI melanoma
SK-MEL-28 melanoma = system: SK-MEL-28 melanoma
OVCAR-4 ovarian = system: OVCAR-4 ovarian
UACC-62 melanoma = system: UACC-62 melanoma
SNB-75 CNS = system: SNB-75 CNS
HCT-15 colon = system: HCT-15 colon
UO-31 renal = system: UO-31 renal
SN12C renal = system: SN12C renal
786-0 renal = system: 786-0 renal

SMILES	TGI (EKVX NSCLC) [µM]	TGI (LOX IMVI melanoma) [µM]	TGI (SK-MEL-28 melanoma)	TGI (OVCAR-4 ovarian)	TGI (UACC-62 melanoma) [µM]	TGI (SNB-75 CNS)	TGI (HCT-15 colon) [µM]	TGI (UO-31 renal) [µM]	TGI (SN12C renal) [µM]	TGI (786-0 renal) [µM]	GI50 (EKVX NSCLC) [µM]	GI50 (LOX IMVI melanoma) [µM]	GI50 (SK-MEL-28 melanoma)	GI50 (OVCAR-4 ovarian)	GI50 (UACC-62 melanoma) [µM]	GI50 (SNB-75 CNS)	GI50 (HCT-15 colon) [µM]	GI50 (UO-31 renal) [µM]	GI50 (SN12C renal) [µM]	GI50 (786-0 renal) [µM]
CC1=CC(=O)C(C(O)(C(F)(F)F)C(F)(F)F)C(C)(C)C1 (stereo not given)	> 10	> 10	> 10 µM	> 10 µM	> 10	> 10 µM	> 10	> 10	> 10	> 10	–	–	–	–	–	–	–	–	–	–
O=C(N/N=C/c1ccc([N+](=O)[O-])o1)c1ccc(O)cc1	42.9	16.9	> 100 µM	4.51 µM	6.93	83.2 µM	25.4	> 100	> 100	21.4	8.46	2.15	14.7 µM	1.72 µM	2.21	17.4 µM	4.06	23.7	4.03	9.17
CCCCCCCCCCN1CCC(N2CCCCC2)CC1	18.3	2.47	3.41 µM	20.7 µM	3.4	6.12 µM	3.73	2.8	19.3	15.9	4.37	1.23	1.78 µM	6.61 µM	1.76	2.06 µM	1.38	1	4.81	2.82
C/C(=N\NC(=S)N1CC2CCC(CC2)C1)c1ccccn1	1.16	1.81	2.93 µM	1.1 µM	3.3	2.07 µM	2.51	1.63	2.03	1.46	0.0322	0.0428	0.767 µM	0.0238 µM	0.309	0.643 µM	0.0313	0.021	0.228	0.152
CCN(CC)CCNC(=O)c1ccc(C)c(OCc2ccccc2)c1[N+](=O)[O-]	> 100	49.9	34.2 µM	> 100 µM	39.6	67.9 µM	47.4	50.5	> 100	> 74.6	–	–	–	–	–	–	–	–	–	–
CCCCCCCCCCCCOC1C(C(CC(=O)NCCN2CCCC2)NS(=O)(=O)c2cc(Cl)cc(Cl)c2)OC2OC(C)(C)OC21 (stereo not given)	3.49	3.5	3.55 µM and 3.1 µM	3.7 µM and 3.51 µM	3.3	3.56 µM and 2.86 µM	3.18	3.44	3.23	3.27	1.87	1.9	1.94 µM and 1.59 µM	2 µM and 1.7 µM	1.85	1.9 µM and 1.42 µM	1.71	1.9	1.76	1.68
COc1ccc2c(c1)C(C)Cc1c(ncnc1-n1cnc3cc(C)ccc31)N2C (stereo not given)	23.2	14.5	19.8 µM	33.7 µM	18	19.9 µM	12.9	13.1	20.5	15	0.25	0.0642	0.575 µM	0.347 µM	0.0436	0.0529 µM	0.207	0.106	0.38	0.0649
